Test results taken from US9556160B2, “Guanidine compound” (Astellas Pharma Inc., priority 2011, dated 2017).

Legend:
[1] = molecular target: human VAP-1 enzyme (SSAO) (Homo sapiens (Human), UniProt Q16853); assay: Inhibitory effect on human VAP-1 enzyme (SSAO) activity, radiochemistry-enzymatic assay with 14C-benzylamine; type: biochemical; conditions: CHO-expressed human VAP-1, 14C-benzylamine 1×10^−5 mol/L
Protocol: (§1) After homogenizing CHO (Chinese Hamster Ovary) cells stably expressing a human VAP-1 enzyme (SSAO) in a 50 mM phosphate buffer containing 1% NP-40, an enzyme suspension was obtained by taking the supernatant obtained by centrifugation. The enzyme suspension was preincubated with the compound of the present invention in a 96-well microplate at room temperature for 30 minutes. Subsequently, the enzyme suspension was incubated with ^14C-benzylamine (a final concentration of 1×10^−5 mol/L) to a final volume of […] at 37° C. for 1 hour. The enzymatic reaction was stopped by the addition of 2 mol/L (50 pt) of citric acid.

[2] = system: VAP-1 enzyme (SSAO) activity in rat plasma; assay: Inhibitory effect on rat VAP-1 enzyme (SSAO) activity in rat plasma after oral administration; type: in vivo, Wistar male rats; conditions: rat plasma VAP-1 activity, oral 0.3 mg/kg; for Inhibition Ratio (%) 1 h: 1 h after administration; for Inhibition Ratio (%) 3 h: 3 h after administration; for Inhibition Ratio (%) 6 h: 6 h after administration; for Inhibition Ratio (%) 24 h: 24 h after administration; for Inhibition Ratio (%) 12 h: 12 h after administration
Protocol: Eight-week to twelve-week Wistar male rats were fasted for 20 hours, and orally administered with a test drug ([…]). Heparin blood collection from the tail vein was performed immediately before the administration, and at 1 h, 3 h, 6 h, 12 h, or 24 h after the administration. The resulting blood was subjected to centrifugation at 14000 rpm for 5 minutes to separate plasma, and the VAP-1 enzyme activity in the resulting plasma was measured by a radio-enzyme assay method.
For the radio-enzyme assay method, ^14C-benzylamine which is a synthetic substrate (10 μM) was reacted with the resulting plasma at 37° C., and the resulting metabolite was extracted with a mixture of toluene/ethyl acetate. The radioactivity was measured and taken as a VAP-1 enzyme activity in the plasma. The effect of the test drug was calculated from the inhibitory ratio (%) of the VAP-1 activity after the administration of the test drug relative to the VAP-1 activity in the plasma immediately before the administration.

rat VAP-1 enzyme (SSAO) = rat VAP-1 enzyme (SSAO) (Rattus norvegicus (Rat), UniProt O08590); assay: Inhibitory effect on rat VAP-1 enzyme (SSAO) activity, radiochemistry-enzymatic assay with 14C-benzylamine; type: biochemical; conditions: CHO-expressed rat VAP-1, 14C-benzylamine 1×10^−5 mol/L
Sequence of rat VAP-1 enzyme (SSAO) (O08590 whole entry): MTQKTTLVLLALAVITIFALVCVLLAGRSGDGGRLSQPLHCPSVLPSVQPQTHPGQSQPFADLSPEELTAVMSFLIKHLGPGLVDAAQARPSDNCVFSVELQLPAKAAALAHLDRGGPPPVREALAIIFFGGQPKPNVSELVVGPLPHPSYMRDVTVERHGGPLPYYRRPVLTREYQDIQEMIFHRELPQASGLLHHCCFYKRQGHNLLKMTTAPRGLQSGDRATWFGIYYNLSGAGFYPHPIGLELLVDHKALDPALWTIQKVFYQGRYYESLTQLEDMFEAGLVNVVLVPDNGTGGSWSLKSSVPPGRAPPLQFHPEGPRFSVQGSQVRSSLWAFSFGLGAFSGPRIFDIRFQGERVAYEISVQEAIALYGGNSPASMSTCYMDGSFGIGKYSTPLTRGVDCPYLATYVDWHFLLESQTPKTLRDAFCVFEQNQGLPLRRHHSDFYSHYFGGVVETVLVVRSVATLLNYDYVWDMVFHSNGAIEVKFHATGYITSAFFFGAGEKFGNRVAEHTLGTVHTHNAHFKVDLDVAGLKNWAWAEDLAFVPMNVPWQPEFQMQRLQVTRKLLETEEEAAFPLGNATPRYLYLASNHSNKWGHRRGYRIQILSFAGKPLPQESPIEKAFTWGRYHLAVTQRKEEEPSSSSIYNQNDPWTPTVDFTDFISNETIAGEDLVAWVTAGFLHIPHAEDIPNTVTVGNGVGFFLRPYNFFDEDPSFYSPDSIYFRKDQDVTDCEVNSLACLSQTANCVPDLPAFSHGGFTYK
Protocol: as §1, with “rat” for “human”, “μL)” for “pt)”, “acid. The oxidation products were extracted directly in a 200 μL toluene scintillator, and the radioactivity was measured with a scintillation spectrometer.” for “acid.”

Sequence of human VAP-1 enzyme (SSAO) (Q16853 whole entry): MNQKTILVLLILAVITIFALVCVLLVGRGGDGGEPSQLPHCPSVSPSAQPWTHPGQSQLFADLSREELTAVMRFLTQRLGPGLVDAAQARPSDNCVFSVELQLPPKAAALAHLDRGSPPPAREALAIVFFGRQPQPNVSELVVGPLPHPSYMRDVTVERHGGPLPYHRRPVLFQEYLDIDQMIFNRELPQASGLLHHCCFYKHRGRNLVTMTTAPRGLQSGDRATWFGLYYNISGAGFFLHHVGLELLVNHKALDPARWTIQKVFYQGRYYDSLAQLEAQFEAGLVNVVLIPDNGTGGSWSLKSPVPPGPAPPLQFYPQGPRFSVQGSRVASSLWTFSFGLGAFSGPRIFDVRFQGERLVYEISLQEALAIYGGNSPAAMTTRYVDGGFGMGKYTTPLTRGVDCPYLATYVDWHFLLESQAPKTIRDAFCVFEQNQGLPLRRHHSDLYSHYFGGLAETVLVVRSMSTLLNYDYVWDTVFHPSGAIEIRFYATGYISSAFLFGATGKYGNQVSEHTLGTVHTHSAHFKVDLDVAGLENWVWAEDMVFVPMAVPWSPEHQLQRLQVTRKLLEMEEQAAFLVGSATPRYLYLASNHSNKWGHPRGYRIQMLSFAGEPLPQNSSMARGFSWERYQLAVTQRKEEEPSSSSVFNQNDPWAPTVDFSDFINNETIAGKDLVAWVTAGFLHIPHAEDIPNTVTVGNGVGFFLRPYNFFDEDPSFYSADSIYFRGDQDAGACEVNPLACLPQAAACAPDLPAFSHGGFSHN

| Structure (SMILES) | IC50 [1] [nM] | IC50 (rat VAP-1 enzyme (SSAO)) [nM] | Inhibition Ratio (%) 1 h [2] [%] | Inhibition Ratio (%) 3 h [2] [%] | Inhibition Ratio (%) 6 h [2] [%] | Inhibition Ratio (%) 24 h [2] [%] | Inhibition Ratio (%) 12 h [2] [%] |
| --- | --- | --- | --- | --- | --- | --- | --- |
| COCc1cncc(N2CCN(c3cccc(COC(=O)NC(=N)N)c3F)CC2)c1 [Example 558] | 23 | 1.2 | 84 | 87 | 81 | 62 | – |
| COCC(=O)N1CCC(C2CN(c3cccc(COC(=O)NC(=N)N)c3F)C2)CC1 [Example 562] | 14 | 1.4 | 79 | 81 | 78 | 37 | – |
| COc1ncc(N2CCN(c3cccc(COC(=O)NC(=N)N)c3F)CC2)cn1 [Example 126] | 15 | 0.53 | 98 | 97 | 97 | 69 | – |
| COCc1ccc(N2CCN(c3cccc(COC(=O)NC(=N)N)c3F)CC2)cn1 [Example 554] | 21 | 0.97 | 99 | 100 | 87 | 72 | – |
| CCC(=O)N1CCC(OC2CN(c3cccc(COC(=O)NC(=N)N)c3F)C2)CC1 [Example 551] | 14 | 1.8 | 68 | 59 | 51 | 5 | – |
| COC1CN(c2ncc(-c3cccc(COC(=O)NC(=N)N)c3F)cn2)C1 [Example 63] | 3.4 | 1.1 | 83 | 87 | 80 | – | 68 |
| N=C(N)NC(=O)NCc1cccc(-c2cnc(N3CCOCC3)nc2)c1 [Example 322] | 51 | 22 | 40 | 55 | 50 | – | 38 |
| N=C(N)NC(=O)OCc1cccc(-c2cnc(N3CCN(c4ccc(CCC(=O)O)cc4)CC3)nc2)c1F [Example 335] | 11 | 2 | 82 | 84 | 86 | – | 83 |
| Cl.N=C(N)NC(=O)OCc1cccc(-c2cnc(N3CCOCC3)nc2)c1F [Example 81] | 9.7 | 3.9 | 78 | 78 | 78 | – | 53 |
| N=C(N)NC(=O)OCc1cccc(N2CCN(c3cccnc3)CC2)c1F [Example 293] | – | 0.97 | – | – | – | – | – |

The next lines start with results.

| IC50 [1] [nM] | IC50 (rat VAP-1 enzyme (SSAO)) [nM] | Structure (SMILES) | Inhibition Ratio (%) 1 h [2] [%] | Inhibition Ratio (%) 3 h [2] [%] | Inhibition Ratio (%) 6 h [2] [%] | Inhibition Ratio (%) 24 h [2] [%] | Inhibition Ratio (%) 12 h [2] [%] |
| --- | --- | --- | --- | --- | --- | --- | --- |
| 20 | 1.5 | COCCC(=O)N1CCC(C2CN(c3cccc(COC(=O)NC(=N)N)c3F)C2)CC1 [Example 563] | 69 | 77 | 70 | 43 | – |
| 19 | 1.5 | CS(=O)(=O)N1CCC(C2CN(c3cccc(COC(=O)NC(=N)N)c3F)C2)CC1 [Example 564] | 89 | 90 | 85 | 59 | – |
| 6.3 | 1.2 | COCc1cc(N2CCN(c3cccc(COC(=O)NC(=N)N)c3F)CC2)ccn1 [Example 566] | 75 | 74 | 70 | 38 | – |
| 19 | 2.5 | COCCOc1cc(N2CCN(c3cccc(COC(=O)NC(=N)N)c3F)CC2)ccn1 [Example 565] | 77 | 83 | 71 | 47 | – |
